# What was measured:
# Enterococcus faecalis [1] = assay: Compound was evaluated for in vitro antibacterial activity against gram positive organism Streptococcus faecalis strain ATCC 49384; format: functional
# Escherichia coli [2] = assay: Compound was evaluated for in vitro antibacterial activity against gram negative organism Escherichia coli strain DRCC 134; format: functional
# Pseudomonas aeruginosa [3] = assay: Compound was evaluated for in vitro antibacterial activity against gram negative organism Pseudomonas aeruginosa strain DRCC 131; format: functional
# Escherichia coli [4] = assay: Compound was evaluated for in vitro antibacterial activity against gram negative organism Escherichia coli strain ATCC 35218; format: functional
# Escherichia coli [5] = assay: Compound was evaluated for in vitro antibacterial activity against gram negative organism Escherichia coli strain DRCC 091; format: functional
# Escherichia coli [6] = assay: Compound was evaluated for in vitro antibacterial activity against gram negative organism Escherichia coli strain DRCC 133; format: functional
# Salmonella typhimurium = assay: Compound was evaluated for in vitro antibacterial activity against gram negative organism Salmonella Typhimurium MTCC 98; format: functional, Salmonella enterica subsp. enterica serovar Typhimurium; conditions: Salmonella enterica
# Enterococcus faecalis [7] = assay: Compound was evaluated for in vitro antibacterial activity against gram positive organism Streptococcus faecalis strain ATCC 51299; format: functional
# Staphylococcus aureus [8] = assay: Compound was evaluated for in vitro antibacterial activity against gram positive organism Staphylococcus aureus strain ATCC 29213; format: functional
# Salmonella typhi = assay: Compound was evaluated for in vitro antibacterial activity against gram negative organism Salmonella typhi strain MTCC 531; format: functional, Salmonella enterica subsp. enterica serovar Typhi; conditions: Salmonella enterica
# Pseudomonas aeruginosa [9] = assay: Compound was evaluated for in vitro antibacterial activity against gram negative organism Pseudomonas aeruginosa strain DRCC 137; format: functional
# Escherichia coli [10] = assay: Compound was evaluated for in vitro antibacterial activity against gram negative organism Escherichia coli strain ATCC 25922; format: functional
# [11] = tested on: Staphylococcus epidermidis; assay: Compound was evaluated for in vitro antibacterial activity against gram positive organism Staphylococcus epidermidis strain ATCC 12228; format: functional
# Staphylococcus aureus [12] = assay: Compound was evaluated for in vitro antibacterial activity against gram positive organism Staphylococcus aureus strain ATCC 33592; format: functional
# Klebsiella pneumoniae [13] = assay: Compound was evaluated for in vitro antibacterial activity against gram negative organism Klebsiella pneumoniae strain ATCC 10031; format: functional
# Pseudomonas aeruginosa [14] = assay: Compound was evaluated for in vitro antibacterial activity against gram negative organism Pseudomonas aeruginosa strain MTCC 1688; format: functional
# Streptococcus pyogenes = assay: Compound was evaluated for in vitro antibacterial activity against gram positive organism Streptococcus pyogenes strain DRCC 092; format: functional
# Klebsiella pneumoniae [15] = assay: Compound was evaluated for in vitro antibacterial activity against gram negative organism Klebsiella pneumoniae strain DRCC 132; format: functional
# Enterococcus faecalis [16] = assay: Compound was evaluated for in vitro antibacterial activity against gram positive organism Streptococcus faecalis strain ATCC 29212; format: functional
# Pseudomonas aeruginosa [17] = assay: Compound was evaluated for in vitro antibacterial activity against gram negative organism Pseudomonas aeruginosa strain DRCC 135; format: functional
# Staphylococcus aureus [18] = assay: Compound was evaluated for in vitro antibacterial activity against gram positive organism Staphylococcus aureus strain MTCC 737; format: functional
# Klebsiella pneumoniae [19] = assay: Compound was evaluated for in vitro antibacterial activity against gram negative organism Klebsiella pneumoniae strain DRCC 136; format: functional
# Staphylococcus aureus [20] = assay: Compound was evaluated for in vitro antibacterial activity against gram positive organism Staphylococcus aureus strain ATCC 6538P; format: functional
# [21] = tested on: Salmonella enterica subsp. enterica serovar Abony; assay: Compound was evaluated for in vitro antibacterial activity against gram negative organism Salmonella abony strain NCIM 2257; format: functional
# Pseudomonas fluorescens = assay: Compound was evaluated for in vitro antibacterial activity against gram negative organism Pseudomonas fluorescence strain DRCC 008; format: functional
# Pseudomonas aeruginosa [22] = assay: Compound was evaluated for in vitro antibacterial activity against gram negative organism Pseudomonas aeruginosa strains ATCC 27853; format: functional
# Staphylococcus aureus [23] = assay: Compound was evaluated for in vitro antibacterial activity against gram positive organism Staphylococcus aureus strain ATCC 33591; format: functional
SMILES,MIC (Enterococcus faecalis [1]) [mg/L],MIC (Escherichia coli [2]) [mg/L],MIC (Pseudomonas aeruginosa [3]) [mg/L],MIC (Escherichia coli [4]) [mg/L],MIC (Escherichia coli [5]) [mg/L],MIC (Escherichia coli [6]) [mg/L],MIC (Salmonella typhimurium) [mg/L],MIC (Enterococcus faecalis [7]) [mg/L],MIC (Staphylococcus aureus [8]) [mg/L],MIC (Salmonella typhi) [mg/L],MIC (Pseudomonas aeruginosa [9]) [mg/L],MIC (Escherichia coli [10]) [mg/L],MIC [11] [mg/L],MIC (Staphylococcus aureus [12]) [mg/L],MIC (Klebsiella pneumoniae [13]) [mg/L],MIC (Pseudomonas aeruginosa [14]) [mg/L],MIC (Streptococcus pyogenes) [mg/L],MIC (Klebsiella pneumoniae [15]) [mg/L],MIC (Enterococcus faecalis [16]) [mg/L],MIC (Pseudomonas aeruginosa [17]) [mg/L],further results
CN[C@@H]1CN(c2cc3c(cc2F)c(=O)c(C(=O)O)cn3C2CC2)C[C@H]1NC.Cl,4,> 8,2,0.25,> 8,> 8,0.5,0.25,1,0.5,> 8,0.125,0.5,0.5,0.06,2,0.06,> 8,2,> 8,MIC (Staphylococcus aureus [18]): 1 mg/L; MIC (Klebsiella pneumoniae [19]): 0.5 mg/L; MIC (Staphylococcus aureus [20]): 0.5 mg/L; MIC [21]: 1 mg/L; MIC (Pseudomonas fluorescens): > 8 mg/L; MIC (Pseudomonas aeruginosa [22]): 4 mg/L; MIC (Staphylococcus aureus [23]): 1 mg/L
CN[C@@H]1CN(c2cc3c(cc2F)c(=O)c(C(=O)O)cn3-c2ccc(F)cc2)C[C@H]1NC.Cl,0.5,> 8,0.25,1,> 8,> 8,1,0.25,0.5,0.25,1,0.5,1,0.25,0.125,2,1,> 8,0.5,> 8,MIC (Staphylococcus aureus [18]): 0.5 mg/L; MIC (Klebsiella pneumoniae [19]): 0.5 mg/L; MIC (Staphylococcus aureus [20]): 0.5 mg/L; MIC [21]: 0.5 mg/L; MIC (Pseudomonas fluorescens): 2 mg/L; MIC (Pseudomonas aeruginosa [22]): 4 mg/L; MIC (Staphylococcus aureus [23]): 1 mg/L
CN[C@@H]1CN(c2c(F)c(N)c3c(=O)c(C(=O)O)cn(C4CC4)c3c2F)C[C@H]1NC.Cl,1,> 8,1,0.5,> 8,> 8,0.125,0.25,0.25,0.25,> 8,0.06,1,0.25,0.06,0.5,0.03,> 8,1,> 8,MIC (Staphylococcus aureus [18]): 0.25 mg/L; MIC (Klebsiella pneumoniae [19]): 0.5 mg/L; MIC (Staphylococcus aureus [20]): 0.5 mg/L; MIC [21]: 0.25 mg/L; MIC (Pseudomonas fluorescens): > 8 mg/L; MIC (Pseudomonas aeruginosa [22]): 4 mg/L; MIC (Staphylococcus aureus [23]): 0.25 mg/L
CCn1cc(C(=O)O)c(=O)c2cc(F)c(N3C[C@@H](NC)[C@H](NC)C3)c(F)c21.Cl,8,> 8,> 8,1,> 8,> 8,1,2,4,1,8,0.5,2,4,0.5,1,4,> 8,4,> 8,MIC (Staphylococcus aureus [18]): 4 mg/L; MIC (Klebsiella pneumoniae [19]): 8 mg/L; MIC (Staphylococcus aureus [20]): 4 mg/L; MIC [21]: 8 mg/L; MIC (Pseudomonas fluorescens): 4 mg/L; MIC (Pseudomonas aeruginosa [22]): 8 mg/L; MIC (Staphylococcus aureus [23]): 1 mg/L
CN[C@@H]1CN(c2cc3c(cc2F)c(=O)c(C(=O)O)cn3-c2ccccc2F)C[C@H]1NC.O=C(O)C(F)(F)F,4,> 8,0.5,0.5,> 8,> 8,1,2,4,4,> 8,1,2,4,0.06,4,0.03,> 8,4,> 8,MIC (Staphylococcus aureus [18]): 4 mg/L; MIC (Klebsiella pneumoniae [19]): 2 mg/L; MIC (Staphylococcus aureus [20]): 0.5 mg/L; MIC [21]: 1 mg/L; MIC (Pseudomonas fluorescens): > 8 mg/L; MIC (Pseudomonas aeruginosa [22]): 4 mg/L; MIC (Staphylococcus aureus [23]): 1 mg/L
Cl.N[C@@H]1CN(c2cc3c(cc2F)c(=O)c(C(=O)O)cn3-c2ccc(F)cc2)C[C@H]1N,1,> 8,1,1,> 8,> 8,1,1,1,> 8,> 8,1,1,1,1,2,0.5,> 8,2,> 8,MIC (Staphylococcus aureus [18]): 1 mg/L; MIC (Klebsiella pneumoniae [19]): > 8 mg/L; MIC (Staphylococcus aureus [20]): 1 mg/L; MIC [21]: 4 mg/L; MIC (Pseudomonas fluorescens): 2 mg/L; MIC (Pseudomonas aeruginosa [22]): 8 mg/L; MIC (Staphylococcus aureus [23]): 1 mg/L
CCn1cc(C(=O)O)c(=O)c2cc(F)c(N3C[C@@H](N)[C@H](N)C3)c(F)c21.Cl,4,> 8,> 8,1,> 8,> 8,0.5,2,2,1,> 8,0.5,2,4,0.125,1,2,> 8,4,> 8,MIC (Staphylococcus aureus [18]): 2 mg/L; MIC (Klebsiella pneumoniae [19]): > 8 mg/L; MIC (Staphylococcus aureus [20]): 2 mg/L; MIC [21]: 8 mg/L; MIC (Pseudomonas fluorescens): 4 mg/L; MIC (Pseudomonas aeruginosa [22]): > 8 mg/L; MIC (Staphylococcus aureus [23]): 2 mg/L
